“Also recorded” adds a separate entry of the source.
Columns and labels:
[1] = Food intake and body weight in mice, sub-chronic dosing; assay type: in vivo; details: sub-chronic dosing 10 and 30 mg/kg qd, i.p.
[2] = Food intake and body weight in rats, sub-chronic dosing; assay type: in vivo; details: sub-chronic dosing 10 and 30 mg/kg qd, i.p.
D2 = D2 (Homo sapiens, UniProt P14416); experiment: Compound Binding Profiles: D2; details: * = Estimated IC50
CYP1A2 = molecular target: T1, CYP1A2 (Homo sapiens, UniProt P05177); experiment: CYP inhibition CYP1A2
T1 sequence (P05177 1-516): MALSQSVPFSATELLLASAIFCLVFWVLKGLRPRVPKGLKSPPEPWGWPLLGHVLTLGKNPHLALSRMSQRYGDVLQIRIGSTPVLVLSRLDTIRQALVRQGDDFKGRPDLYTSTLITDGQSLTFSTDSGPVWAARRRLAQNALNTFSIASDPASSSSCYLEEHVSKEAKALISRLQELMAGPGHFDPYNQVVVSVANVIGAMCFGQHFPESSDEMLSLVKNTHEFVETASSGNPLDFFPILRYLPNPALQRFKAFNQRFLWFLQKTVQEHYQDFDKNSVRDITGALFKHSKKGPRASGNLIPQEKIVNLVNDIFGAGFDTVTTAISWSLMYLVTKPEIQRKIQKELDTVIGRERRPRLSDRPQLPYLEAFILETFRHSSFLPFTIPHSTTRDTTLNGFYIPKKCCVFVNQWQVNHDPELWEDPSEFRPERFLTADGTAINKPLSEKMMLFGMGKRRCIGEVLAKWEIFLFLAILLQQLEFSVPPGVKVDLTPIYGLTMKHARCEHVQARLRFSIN

α1 = experiment: Compound Binding Profiles: α1; details: * = Estimated IC50
α2 = experiment: Compound Binding Profiles: α2; details: * = Estimated IC50
[3] = tested on: more than 70 tested receptors; details: versus 5-HT6
5HT2C = molecular target: T2, 5HT2C (Homo sapiens, UniProt P28335); experiment: Compound Binding Profiles: 5HT2C; details: * = Estimated IC50
T2 sequence (P28335 33-458): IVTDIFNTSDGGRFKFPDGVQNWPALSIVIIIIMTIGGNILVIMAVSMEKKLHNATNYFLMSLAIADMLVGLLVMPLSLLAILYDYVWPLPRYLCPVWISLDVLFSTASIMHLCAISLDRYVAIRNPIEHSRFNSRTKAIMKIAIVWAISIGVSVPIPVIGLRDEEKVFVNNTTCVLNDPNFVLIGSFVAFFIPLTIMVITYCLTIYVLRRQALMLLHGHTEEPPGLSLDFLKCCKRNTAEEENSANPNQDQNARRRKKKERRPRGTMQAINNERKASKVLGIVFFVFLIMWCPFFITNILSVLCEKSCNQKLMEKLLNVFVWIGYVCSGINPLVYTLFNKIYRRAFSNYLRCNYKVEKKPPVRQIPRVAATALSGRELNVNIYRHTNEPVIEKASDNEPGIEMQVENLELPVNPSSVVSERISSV

[4] = Oral pharmacokinetics in dogs; details: dog, in vivo, oral administration 5 mg/kg
CYP2C19 = CYP2C19 (Homo sapiens, UniProt P33261); experiment: CYP inhibition CYP2C19
Sequence of CYP2C19 (P33261 whole entry): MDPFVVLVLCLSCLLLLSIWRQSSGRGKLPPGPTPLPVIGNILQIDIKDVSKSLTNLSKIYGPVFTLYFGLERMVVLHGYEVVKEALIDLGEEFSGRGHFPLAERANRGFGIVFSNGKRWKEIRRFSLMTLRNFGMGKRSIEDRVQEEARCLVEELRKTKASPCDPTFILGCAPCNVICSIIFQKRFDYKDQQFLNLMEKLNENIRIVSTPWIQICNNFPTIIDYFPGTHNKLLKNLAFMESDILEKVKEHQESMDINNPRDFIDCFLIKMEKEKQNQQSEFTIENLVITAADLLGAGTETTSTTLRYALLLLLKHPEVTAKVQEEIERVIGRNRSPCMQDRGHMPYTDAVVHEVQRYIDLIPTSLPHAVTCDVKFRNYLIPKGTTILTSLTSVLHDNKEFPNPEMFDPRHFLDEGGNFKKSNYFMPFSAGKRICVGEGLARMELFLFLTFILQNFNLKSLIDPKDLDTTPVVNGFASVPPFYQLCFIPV

[5] = Novel object recognition test; assay type: in vivo, C57Bl/6J mice; details: for Memory index, Mean: 10 min test; for Exploration time, Diff of Means 10% DMSO vs. treatment: within Familiar; for Exploration time, Diff of Means treatment vs. 10% DMSO: within Novel
From the text: Male C57Bl/6J mice from Jackson Laboratories (Bar Harbor, Me.) were used. Mice were received at 6-weeks of age. Upon receipt, mice were assigned unique identification numbers (tail marked) and were group housed in polycarbonate cages with filter tops. All animals remained housed in groups of four during the remainder of the study. All mice were acclimated to the colony room for at least two weeks prior to testing and were subsequently tested at an average age of 8 weeks of age. During the period of acclimation, mice were examined on a regular basis, handled, and weighed to assure adequate health and suitability. Mice were maintained on a 12/12 light/dark cycle with the light on at 6:00 a.m. The room temperature was maintained between 20 and 23° C. with a relative humidity maintained between 30% and 70%. Chow and water were provided ad libitum for the duration of the study. In each test, animals were randomly assigned across treatment groups.
The pH at the 10 mg/kg was around 5.5.
Rolipram, also dissolved in 10% DMSO was only administered 20 min prior to training on Day 2.
On Day 1, mice were habituated to a circular open field environment (d=18 in, h=15 cm) for one hour in cage groups of four. Each Arena was constructed out of acrylic that was painted black to block reflection. On day 2, mice were placed back into the same arena for a training trial and allowed to explore a set of two identical objects placed equidistance apart from both each other and the arena walls. Individual mice were trained for a total of 15 minutes and then placed back into their home cages. On Day 3, mice were placed back into the same arena in the presence of both the familiar (previously explored) and a novel object. The spatial positions of the familiar and novel object (i.e. left-right sides) were counterbalanced between subjects. The difference in time spent exploring each object during the test trial was used as an index of object recognition and memory retention. Each animals test trial was recorded and these tapes were observed and scored after test completion. The first 10 min of each session was scored and object recognition was computed using the formula: (Time spent with novel object*100)/(Total Time exploring both objects). Tissue Harvest
Data were analyzed by analysis of variance (ANOVA) followed by post-hoc comparisons with Fisher Tests when appropriate. An effect was considered significant if p<0.05. Data are represented as the mean and standard error to the mean.

Sequence of D2 (P14416 whole entry): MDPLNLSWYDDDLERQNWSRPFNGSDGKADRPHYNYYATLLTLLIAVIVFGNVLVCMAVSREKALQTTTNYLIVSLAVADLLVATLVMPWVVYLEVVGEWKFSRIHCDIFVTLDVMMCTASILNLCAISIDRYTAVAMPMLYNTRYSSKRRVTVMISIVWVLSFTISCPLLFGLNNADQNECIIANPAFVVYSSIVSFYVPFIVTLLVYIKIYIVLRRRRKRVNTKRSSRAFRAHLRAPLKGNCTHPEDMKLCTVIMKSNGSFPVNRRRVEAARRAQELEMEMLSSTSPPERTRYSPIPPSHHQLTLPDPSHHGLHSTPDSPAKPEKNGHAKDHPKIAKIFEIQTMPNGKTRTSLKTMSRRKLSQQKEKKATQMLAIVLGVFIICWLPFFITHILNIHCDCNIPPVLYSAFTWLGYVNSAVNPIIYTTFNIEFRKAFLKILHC

COc1cc(Cl)cc(C(C)Nc2cc(N3CCNCC3)ccc2S(C)(=O)=O)c1OC.Cl (centres unmarked) [Compound A, [1-(5-Chloro-2,3-dimethoxy-phenyl)-ethyl]-(2-methanesulfonyl-5-piperazin-1-yl-phenyl)-amine hydrochloride]
body weight [1]: significant reduction | food intake [1]: significant reduction | body weight [2]: significant reduction | food intake [2]: significant reduction | IC50 (D2): 9 µM | IC50 (CYP1A2): > 7.5 µM | IC50 (α1): 24 µM | IC50 (α2): 23 µM | safety margin (selectivity) to more than 70 tested receptors [3]: > 100 fold | IC50 (5HT2C): 3.8 µM | bioavailability ([4]; read-out: bioavailability F): 81% | half-life ([4]; read-out: half-life T1/2 (converted)): 300 min | IC50 (CYP2C19): > 7.5 µM | Exploration time, Diff of Means Novel vs. Familiar ([5]; 1 mg/kg): 14.456 | Memory index, Mean Diff. Vehicle versus treatment (Fisher's PLSD) ([5]; 1 mg/kg): −4.573 | Memory index, Mean ([5]; 1 mg/kg i.p.): 61.179 | Exploration time, Mean ([5]; 1 mg/kg, Familiar Object): 24.810 | Exploration time, Mean ([5]; 1 mg/kg, Novel Object): 39.266 | Exploration time, Diff of Means Novel vs. Familiar ([5]; 3 mg/kg): 23.871 | effect on recognition index / object recognition compared to vehicle ([5]; 3 mg/kg and 10 mg/kg, hydrochloride): significantly increased the recognition index; also recorded: significant, positive effect on object recognition | Memory index, Mean ([5]; 3 mg/kg i.p.): 68.946 | Exploration time, Mean ([5]; 3 mg/kg, Familiar Object): 17.506 | Exploration time, Mean ([5]; 3 mg/kg, Novel Object): 41.377 | Exploration time, Diff of Means Novel vs. Familiar ([5]; 10 mg/kg): 18.878 | Memory index, Mean Diff. Vehicle versus treatment (Fisher's PLSD) ([5]; 10 mg/kg): −9.784 | Memory index, Mean ([5]; 10 mg/kg i.p.): 66.391 | Exploration time, Mean ([5]; 10 mg/kg, Familiar Object): 16.153 | Exploration time, Mean ([5]; 10 mg/kg, Novel Object): 35.031 | time exploring novel object versus familiar object ([5]; 1, 3, and 10 mg/kg): spent more time exploring novel object than the familiar object | Exploration time, Diff of Means 10% DMSO vs. treatment ([5]; 1 mg/kg): 0.831 | Exploration time, Diff of Means 10% DMSO vs. treatment ([5]; 3 mg/kg): 6.473 | Exploration time, Diff of Means 10% DMSO vs. treatment ([5]; 10 mg/kg): 7.826 | Exploration time, Diff of Means treatment vs. 10% DMSO ([5]; 1 mg/kg): 8.282 | Exploration time, Diff of Means treatment vs. 10% DMSO ([5]; 3 mg/kg): 10.393 | Exploration time, Diff of Means treatment vs. 10% DMSO ([5]; 10 mg/kg): 4.047

— patent publication US8604021B2, “Substituted arylamine compounds and methods of treatment” (priority 2005, dated 2013)
